Patent US20060009493A1, “Indolinone hydrazides as c-Met inhibitors” (Sugen, Inc., priority 2003, published 2006)

What follows are molecules tested against T1, GST fusion protein containing the Met kinase domain (Homo sapiens, UniProt P08581) (assay: MET Transphosphorylation Assay (ELISA, poly(Glu,Tyr) 4:1 substrate)). Conditions: met transphosphorylation of poly(glutamic acid:tyrosine 4:1) substrate; two values in a cell separated by '/'.
T1 construct: Purified GST fusion protein containing the Met kinase domain, Sugen, Inc
Format: biochemical
Outline: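 Poly(Glu-Tyr)-coated wells received the GST-Met kinase domain (10 ng/well) with compound in DMSO for 15 minutes. The reaction was started with ATP/MnCl2 in HEPES pH 7.5 buffer with vanadate, run 5 minutes, and stopped with EDTA. Phosphotyrosine was detected by anti-pTyr antibody, HRP secondary and ABTS/H2O2.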

T1 sequence (P08581 1078-1345 limits assumed): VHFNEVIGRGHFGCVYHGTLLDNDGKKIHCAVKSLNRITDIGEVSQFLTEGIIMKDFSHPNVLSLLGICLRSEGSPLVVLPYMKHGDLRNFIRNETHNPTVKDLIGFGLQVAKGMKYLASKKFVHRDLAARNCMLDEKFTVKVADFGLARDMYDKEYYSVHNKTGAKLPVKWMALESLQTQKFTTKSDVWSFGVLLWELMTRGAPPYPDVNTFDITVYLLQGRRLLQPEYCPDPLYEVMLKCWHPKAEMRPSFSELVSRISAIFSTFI

SMILES | IC50
CC(C)(C(=O)N/N=C1\C(=O)Nc2c(Cl)ccc(Cl)c21)c1ccc(Cl)cc1 [II-91, 2-(4-Chloro-phenyl)-2-methyl-propionic acid [(3Z)-4,7-dichloro-2-oxo-1,2-dihydro-indol-3-ylidene]-hydrazide] | > 20000 nM
O=C(Cc1ccc(F)cc1)N/N=C1\C(=O)Nc2ccc(Cl)c(Cl)c21 [II-52, (4-Fluoro-phenyl)-acetic acid [(3Z)-4,5-dichloro-2-oxo-1,2-dihydro-indol-3-ylidene]-hydrazide] | 210 nM
O=C(Cc1ccc(O)cc1)N/N=C1\C(=O)Nc2c(Cl)ccc(Cl)c21 [II-38, (4-Hydroxy-phenyl)-acetic acid [(3Z)-4,7-dichloro-2-oxo-1,2-dihydro-indol-3-ylidene]-hydrazide] | 13 nM
O=C(Cc1cccc(Cl)c1)N/N=C1\C(=O)Nc2ccc(Br)cc21 [II-15, (3-Chloro-phenyl)-acetic acid [(3Z)-5-bromo-2-oxo-1,2-dihydro-indol-3-ylidene]-hydrazide] | 13700 nM
CC(C(=O)N/N=C1\C(=O)Nc2c(Cl)ccc(Cl)c21)c1ccc(O)cc1 (stereo not drawn) [II-77, 2-(4-Hydroxy-phenyl)-propionic acid [(3Z)-4,7-dichloro-2-oxo-1,2-dihydro-indol-3-ylidene]-hydrazide] | 15 nM
O=C(Cc1ccc(O)nc1)N/N=C1\C(=O)Nc2ccc(C(=O)N3CCC(NC4CC4)CC3)c(Cl)c21 [Example I-44, (6-Hydroxy-pyridin-3-yl)-acetic acid [(3Z)-4-chloro-5-(4-cyclopropylamino-piperidine-1-carbonyl)-2-oxo-1,2-dihydro-indol-3-ylidene]-hydrazide] | 570 nM
O=C(Cc1ccc(O)c(O)c1)N/N=C1\C(=O)Nc2ccccc21 [II-64, (3,4-Dihydroxy-phenyl)-acetic acid [(3E)-2-oxo-1,2-dihydro-indol-3-ylidene]-hydrazide] | > 20000 nM
COc1ccc2c(c1Cl)/C(=N/NC(=O)C(C)c1ccc(O)cc1)C(=O)N2 (stereo not drawn) [II-99, 2-(4-Hydroxy-phenyl)-propionic acid [(3Z)-4-chloro-5-methoxy-2-oxo-1,2-dihydro-indol-3-ylidene)-hydrazide] | 45 nM
CCOc1ccc(CC(=O)N/N=C2\C(=O)Nc3ccccc32)cc1 [II-10, (4-Ethoxy-phenyl)-acetic acid [(3Z)-2-oxo-1,2-dihydro-indol-3-ylidene]-hydrazide] | > 20000 nM
O=C(Cc1ccc(O)cc1)N/N=C1\C(=O)Nc2ccc(F)cc21 [II-19, (4-Hydroxy-phenyl)-acetic acid [(3Z)-5-fluoro-2-oxo-1,2-dihydro-indol-3-ylidene]-hydrazide] | 29 nM
COc1c(O)c2c(c(Cl)c1Cl)NC(=O)/C2=N\NC(=O)Cc1ccc(O)cc1 [II-97, (4-Hydroxy-phenyl)-acetic acid [(3Z)-6,7-dichloro-4-hydroxy-5-methoxy-2-oxo-1,2-dihydro-indol-3-ylidene]-hydrazide] | 320 nM
COc1ccc(CC(=O)N/N=C2\C(=O)Nc3ccc(C(=O)O)c(Cl)c32)cc1C#N [II-110, (3Z)-4-Chloro-3-{[2-(3-cyano-4-methoxy-phenyl)-acetyl]-hydrazono}-2-oxo-2,3-dihydro-1H-indole-5-carboxylic acid] | > 20000 nM
O=C(Cc1ccc(O)cc1)N/N=C1\C(=O)Nc2ncccc21 [Example I-49, (4-Hydroxy-phenyl)-acetic acid [(3Z)-2-oxo-1,2-dihydro-pyrrolo[2,3-b]pyridin-3-ylidene)-hydrazide] | 230 nM
O=C(Cn1ccc(=O)[nH]c1=O)N/N=C1\C(=O)Nc2ccccc21 [II-71, (2,4-Dioxo-3,4-dihydro-2H-pyrimidin-1-yl)-acetic acid [(3Z)-2-oxo-1,2-dihydro-indol-3-ylidene]-hydrazide] | > 20000 nM
N#Cc1cc(CC(=O)N/N=C2\C(=O)Nc3c(Cl)ccc(Cl)c32)ccc1O [II-109, (3-Cyano-4-hydroxy-phenyl)-acetic acid [(3Z)4,7-dichloro-2-oxo-1,2-dihydro-indol-3-ylidene)-hydrazide] | 1620 nM
N#Cc1cc(CC(=O)N/N=C2\C(=O)Nc3ccccc32)ccc1O [II-108, (3-Cyano-4-hydroxy-phenyl)-acetic acid [(3Z)-2-oxo-1,2-dihydro-indol-3-ylidene)-hydrazide] | 11900 nM
O=C(Cc1ccc(F)cc1)N/N=C1\C(=O)Nc2ccccc21 [II-27, (4-Fluoro-phenyl)-acetic acid [(3Z)-2-oxo-1,2-dihydro-indol-3-ylidene]-hydrazide] | 2150 nM
CC(C(=O)N/N=C1\C(=O)Nc2ccccc21)c1ccc(O)cc1 (stereo not drawn) [II-18, 2-(4-Hydroxy-phenyl)-propionic acid [(3Z)-2-oxo-1,2-dihydro-indol-3-ylidene]-hydrazide] | 30 nM
Nc1ccc(CC(=O)N/N=C2\C(=O)Nc3ccccc32)cc1 [II-22] | > 20000 nM
O=C(Cc1ccccc1)N/N=C1\C(=O)Nc2ccccc21 [II-6, Phenyl-acetic acid [(3E)-2-oxo-1,2-dihydro-indol-3-ylidene]-hydrazide] | > 20000 nM

SMILES | IC50
O=C(Cc1ccc(O)nc1)N/N=C1\C(=O)Nc2c(Cl)ccc(Cl)c21 [II-56, (6-Hydroxy-pyridin-3-yl)-acetic acid [(3Z)-4,7-dichloro-2-oxo-1,2-dihydro-indol-3-ylidene]-hydrazide] | 21 nM
O=C(Cc1ccc(Cl)cc1)N/N=C1\C(=O)Nc2ccccc21 [II-7, (4-Chloro-phenyl)-acetic acid [(3E)-2-oxo-1,2-dihydro-indol-3-ylidene]-hydrazide] | > 20000 nM
Cc1ccc2c(c1Br)/C(=N/NC(=O)Cc1ccc(O)cc1)C(=O)N2 [II-53, (4-Hydroxy-phenyl)-acetic acid [3Z)-(4-bromo-5-methyl-2-oxo-1,2-dihydro-indol-3-ylidene]-hydrazide] | 23 nM
CCN(CC)CCc1cc(C)c2c(c1C)/C(=N/NC(=O)C(C)c1ccc(F)cc1)C(=O)N2 (stereo not drawn) [Example I-63, 2-(4-Fluoro-phenyl)-propionic acid [(3Z)-5-(2-diethylamino-ethyl)-4,7-dimethyl-2-oxo-1,2-dihydro-indol-3-ylidene]-hydrazide] | 1050 nM
Cc1ccc(C)c2c1NC(=O)/C2=N\NC(=O)C1Cc2ccccc2C1 [Example I-58, Indan-2-carboxylic acid [(3Z)-4,7-dimethyl-2-oxo-1,2-dihydro-indol-3-ylidene]-hydrazide] | > 20000 nM
Cc1cc(C)c2c(c1)/C(=N/NC(=O)Cc1ccc(O)cc1)C(=O)N2 [II-26, (4-Hydroxy-phenyl)-acetic acid [(3Z)-5,7-dimethyl-2-oxo-1,2-dihydro-indol-3-ylidene]-hydrazide] | 20 nM
O=C1Nc2ccccc2/C1=N/NC(=O)C1(c2ccccc2)CC1 [Example I-6, 1-Phenyl-cyclopropanecarboxylic acid [(3Z)-2-oxo-1,2-dihydro-indol-3-ylidene]-hydrazide] | > 20000 nM
O=C(Cc1ccc(F)cc1)N/N=C1\C(=O)Nc2c(Cl)ccc(Cl)c21 [II-67, (4-Fluoro-phenyl)-acetic acid [(3Z)-4,7-dichloro-2-oxo-1,2-dihydro-indol-3-ylidene)-hydrazide] | 20 nM
COC(=O)c1ccc2c(c1)/C(=N/NC(=O)Cc1ccc(O)cc1)C(=O)N2 [Example I-11, (3Z)-3-{[2-(4-Hydroxy-phenyl)-acetyl]-hydrazono}-(3Z)-2-oxo-2,3-dihydro-1H-indole-5-carboxylic acid methyl ester] | 43 nM
O=C(Cc1ccc(O)cc1)N/N=C1\C(=O)Nc2ccc(Br)cc21 [II-20, (4-Hydroxy-phenyl)-acetic acid [(3Z)-5-bromo-2-oxo-1,2-dihydro-indol-3-ylidene]-hydrazide] | 24 nM
O=C(Cc1ccc(Cl)cc1)N/N=C1\C(=O)Nc2ccccc21 [II-4, (4-Chloro-phenyl)-acetic acid [(3Z)-2-oxo-1,2-dihydro-indol-3-ylidene]-hydrazide] | 5870 nM
CC(C)(C(=O)N/N=C1\C(=O)Nc2ccc(C(=O)O)c(Cl)c21)c1ccc(Cl)cc1 [II-92, (3Z)-4-Chloro-3-{[2-(4-chloro-phenyl)-2-methyl-propionyl]-hydrazono}-2-oxo-2,3-dihydro-1H-indole-5-carboxylic acid] | > 20000 nM
O=C(Cc1ccncc1)N/N=C1\C(=O)Nc2ccccc21 [II-21, Pyridin-4-yl-acetic acid [(3Z)-2-oxo-1,2-dihydro-indol-3-ylidene]-hydrazide] | 3100 nM
O=C(Cc1ccc(O)c(Cl)c1)N/N=C1\C(=O)Nc2c(Cl)ccc(Cl)c21 [II-54, (3-Chloro-4-hydroxy-phenyl)-acetic acid [(3Z)-4,7-dichloro-2-oxo-1,2-dihydro-indol-3-ylidene)-hydrazide] | < 9 nM
Cc1ccc(C)c2c1NC(=O)/C2=N\NC(=O)CCc1ccc(N)cc1 [II-93, 3-(4-Amino-phenyl)-propionic acid [(3Z)-4,7-dimethyl-2-oxo-1,2-dihydro-indol-3-ylidene]-hydrazide] | > 20000 nM
Cc1ccc(C)c2c1NC(=O)/C2=N\NC(=O)Cc1ccccc1 [II-85, Phenyl-acetic acid [(3Z)-4,7-dimethyl-2-oxo-1,2-dihydro-indol-3-ylidene]-hydrazide] | 91 nM
CN(C)CC#Cc1ccc2c(c1)/C(=N/NC(=O)Cc1ccc(F)cc1)C(=O)N2 [Example I-50, (4-Fluoro-phenyl)-acetic acid [(3Z)-5-(3-dimethylamino-prop-1-ynyl)-2-oxo-1,2-dihydro-indol-3-ylidene]-hydrazide] | 11900 nM
Cn1cc(CC(=O)N/N=C2\C(=O)Nc3c(Cl)ccc(Cl)c32)ccc1=O [II-59, (1-Methyl-6-oxo-1,6-dihydro-pyridin-3-yl)-acetic acid [(3Z)-4,7-dichloro-2-oxo-1,2-dihydro-indol-3-ylidene]-hydrazide] | 45 nM
COc1ccc2c(c1)/C(=N/NC(=O)Cc1ccc(O)cc1)C(=O)N2 [II-98, (4-Hydroxy-phenyl)-acetic acid [(3Z)-5-methoxy-2-oxo-1,2-dihydro-indol-3-ylidene]-hydrazide] | 89 nM
